Patent US10004701B2, “Methods and compositions for treating infection” (UNIVERSITY OF ROCHESTER, priority 2012, dated 2018)
Where a name gives a salt, the structure may show the parent alone. Read-outs that look alike come from different tables or passages of the source.

Assays:
Assay in all cases: AK assay 384-well format, Prestwick library screening
[1] = system: E. faecium; assay type: cell-based, Enterococcus faecium; conditions: Enterococcus faecium, 3 h, 50 μM final drug concentration
[2] = system: S. aureus strain USA300-0114; assay type: cell-based, Staphylococcus aureus; conditions: Staphylococcus aureus, USA300, 3 h, 50 μM final drug concentration
[3] = system: K. pneumoniae; assay type: cell-based, Klebsiella pneumoniae; conditions: Klebsiella pneumoniae, 3 h, 50 μM final drug concentration
[4] = system: A. baumannii strain 98-37-09; assay type: cell-based, Acinetobacter baumannii; conditions: Acinetobacter baumannii, 983709, 3 h, 50 μM final drug concentration
[5] = system: P. aeruginosa; assay type: cell-based, Pseudomonas aeruginosa; conditions: Pseudomonas aeruginosa, 3 h, 50 μM final drug concentration
[6] = system: E. cloacae; assay type: cell-based, Enterobacter cloacae; conditions: Enterobacter cloacae, 3 h, 50 μM final drug concentration
[7] = system: E. coli; assay type: cell-based, Escherichia coli; conditions: Escherichia coli, 3 h, 50 μM final drug concentration
[8] = planktonic, cutoff for positive-scoring molecules 3-fold increase, read-out: AK-based Prestwick Library Screening Results, E. faecium (fold increase in extracellular AK activity)
[9] = planktonic, cutoff for positive-scoring molecules 3-fold increase, read-out: AK-based Prestwick Library Screening Results, S. aureus (fold increase in extracellular AK activity)
[10] = planktonic, cutoff for positive-scoring molecules 3-fold increase, read-out: AK-based Prestwick Library Screening Results, K. pneumoniae (fold increase in extracellular AK activity)
[11] = planktonic, cutoff for positive-scoring molecules 3-fold increase, read-out: AK-based Prestwick Library Screening Results, A. baumannii (fold increase in extracellular AK activity)
[12] = planktonic, cutoff for positive-scoring molecules 3-fold increase, read-out: AK-based Prestwick Library Screening Results, P. aeruginosa (fold increase in extracellular AK activity)
[13] = planktonic, cutoff for positive-scoring molecules 3-fold increase, read-out: AK-based Prestwick Library Screening Results, E. cloacae (fold increase in extracellular AK activity)
[14] = planktonic, cutoff for positive-scoring molecules 3-fold increase, read-out: AK-based Prestwick Library Screening Results, E. coli (fold increase in extracellular AK activity)

CC(=O)[C@H]1CC[C@H]2[C@@H]3C=CC4=CC(=O)CC[C@@]4(C)[C@@H]3CC[C@]12C [Dydrogesterone]
fold induction at 50 µM [1, 8]: 1 | fold induction at 50 µM [2, 9]: 0.7 | fold induction at 50 µM [3, 10]: 0.8 | fold induction at 50 µM [4, 11]: 0.8 | fold induction at 50 µM [5, 12]: 0.9 | fold induction at 50 µM [6, 13]: 1.2 | fold induction at 50 µM [7, 14]: 0.9

O=c1c2ccccc2[se]n1-c1ccccc1 [Ebselen]
fold induction at 50 µM [1, 8]: 0.9 | fold induction at 50 µM [2, 9]: 0.5 | fold induction at 50 µM [3, 10]: 0.6 | fold induction at 50 µM [4, 11]: 0.7 | fold induction at 50 µM [5, 12]: 0.6 | fold induction at 50 µM [6, 13]: 0.7 | fold induction at 50 µM [7, 14]: 0.6

Clc1ccc(COC(Cn2ccnc2)c2ccc(Cl)cc2Cl)cc1 (centres unmarked) [Econazole nitrate]
fold induction at 50 µM ([1]; planktonic E. faecium, 384-well, cutoff for positive-scoring molecules 3-fold increase, read-out: AK-based Prestwick Library Screening Results: E. faecium (increase in extracellular AK activity)): 1.5 | fold induction at 50 µM ([2]; planktonic S. aureus, 384-well, cutoff for positive-scoring molecules 3-fold increase, read-out: AK-based Prestwick Library Screening Results: S. aureus (increase in extracellular AK activity)): 3.7 | fold induction at 50 µM ([3]; planktonic K. pneumoniae, 384-well, cutoff for positive-scoring molecules 3-fold increase, read-out: AK-based Prestwick Library Screening Results: K. pneumoniae (increase in extracellular AK activity)): 1.3 | fold induction at 50 µM ([4]; planktonic A. baumannii, 384-well, cutoff for positive-scoring molecules 3-fold increase, read-out: AK-based Prestwick Library Screening Results: A. baumannii (increase in extracellular AK activity)): 6.7 | fold induction at 50 µM ([5]; planktonic P. aeruginosa, 384-well, cutoff for positive-scoring molecules 3-fold increase, read-out: AK-based Prestwick Library Screening Results: P. aeruginosa (increase in extracellular AK activity)): 1.3 | fold induction at 50 µM ([6]; planktonic E. cloacae, 384-well, cutoff for positive-scoring molecules 3-fold increase, read-out: AK-based Prestwick Library Screening Results: E. cloacae (increase in extracellular AK activity)): 1.3 | fold induction at 50 µM ([7]; planktonic E. coli, 384-well, cutoff for positive-scoring molecules 3-fold increase, read-out: AK-based Prestwick Library Screening Results: E. coli (increase in extracellular AK activity)): 1.3

CC[N+](C)(C)c1cccc(O)c1 [Edrophonium chloride]
fold induction at 50 µM ([1]; 384-well format, […], read-out: AK-based Prestwick Library Screening Results, E. faecium (increase in extracellular AK activity)): 0.8 | fold induction at 50 µM ([2]; 384-well format, […], read-out: AK-based Prestwick Library Screening Results, S. aureus (increase in extracellular AK activity)): 0.4 | fold induction at 50 µM ([3]; 384-well format, […], read-out: AK-based Prestwick Library Screening Results, K. pneumoniae (increase in extracellular AK activity)): 0.5 | fold induction at 50 µM ([4]; 384-well format, […], read-out: AK-based Prestwick Library Screening Results, A. baumannii (increase in extracellular AK activity)): 0.4 | fold induction at 50 µM ([5]; 384-well format, […], read-out: AK-based Prestwick Library Screening Results, P. aeruginosa (increase in extracellular AK activity)): 0.4 | fold induction at 50 µM ([6]; 384-well format, […], read-out: AK-based Prestwick Library Screening Results, E. cloacae (increase in extracellular AK activity)): 0.3 | fold induction at 50 µM ([7]; 384-well format, […], read-out: AK-based Prestwick Library Screening Results, E. coli (increase in extracellular AK activity)): 0.4

Cc1c2ccncc2c(C)c2c1[nH]c1ccccc12 [Ellipticine]
fold induction at 50 µM ([1]; planktonic, cutoff for positive 3-fold increase, read-out: AK-based Prestwick Library Screening Results, E. faecium (fold increase in extracellular AK activity)): 1.3 | fold induction at 50 µM ([2]; planktonic, cutoff for positive 3-fold increase, read-out: AK-based Prestwick Library Screening Results, S. aureus (fold increase in extracellular AK activity)): 0.8 | fold induction at 50 µM ([3]; planktonic, cutoff for positive 3-fold increase, read-out: AK-based Prestwick Library Screening Results, K. pneumoniae (fold increase in extracellular AK activity)): 1 | fold induction at 50 µM ([4]; planktonic, cutoff for positive 3-fold increase, read-out: AK-based Prestwick Library Screening Results, A. baumannii (fold increase in extracellular AK activity)): 4.1 | fold induction at 50 µM ([5]; planktonic, cutoff for positive 3-fold increase, read-out: AK-based Prestwick Library Screening Results, P. aeruginosa (fold increase in extracellular AK activity)): 1.2 | fold induction at 50 µM ([6]; planktonic, cutoff for positive 3-fold increase, read-out: AK-based Prestwick Library Screening Results, E. cloacae (fold increase in extracellular AK activity)): 1.8 | fold induction at 50 µM ([7]; planktonic, cutoff for positive 3-fold increase, read-out: AK-based Prestwick Library Screening Results, E. coli (fold increase in extracellular AK activity)): 1.3

CC[C@H]1CN2CCc3cc(OC)c(OC)cc3[C@@H]2C[C@@H]1C[C@H]1NCCc2cc(OC)c(OC)cc21 [Emetine dihydrochloride]
fold induction at 50 µM ([1]; planktonic E. faecium, cutoff for positive-scoring molecules 3-fold increase, read-out: AK-based Prestwick Library Screening Results, E. faecium (increase in extracellular AK activity)): 0.9 | fold induction at 50 µM ([2]; planktonic S. aureus, cutoff for positive-scoring molecules 3-fold increase, read-out: AK-based Prestwick Library Screening Results, S. aureus (increase in extracellular AK activity)): 0.5 | fold induction at 50 µM ([3]; planktonic K. pneumoniae, cutoff for positive-scoring molecules 3-fold increase, read-out: AK-based Prestwick Library Screening Results, K. pneumoniae (increase in extracellular AK activity)): 0.6 | fold induction at 50 µM ([4]; planktonic A. baumannii, cutoff for positive-scoring molecules 3-fold increase, read-out: AK-based Prestwick Library Screening Results, A. baumannii (increase in extracellular AK activity)): 0.5 | fold induction at 50 µM ([5]; planktonic P. aeruginosa, cutoff for positive-scoring molecules 3-fold increase, read-out: AK-based Prestwick Library Screening Results, P. aeruginosa (increase in extracellular AK activity)): 0.5 | fold induction at 50 µM ([6]; planktonic E. cloacae, cutoff for positive-scoring molecules 3-fold increase, read-out: AK-based Prestwick Library Screening Results, E. cloacae (increase in extracellular AK activity)): 0.5 | fold induction at 50 µM ([7]; planktonic E. coli, cutoff for positive-scoring molecules 3-fold increase, read-out: AK-based Prestwick Library Screening Results, E. coli (increase in extracellular AK activity)): 0.5

CCOC(=O)[C@H](CCc1ccccc1)N[C@@H](C)C(=O)N1CCC[C@H]1C(=O)O [Enalapril maleate]
fold induction at 50 µM ([1]; planktonic E. faecium, 384-well, […], read-out: AK-based Prestwick Library Screening Results: E. faecium (increase in extracellular AK activity)): 1.1 | fold induction at 50 µM ([2]; planktonic S. aureus, 384-well, […], read-out: AK-based Prestwick Library Screening Results: S. aureus (increase in extracellular AK activity)): 1.3 | fold induction at 50 µM ([3]; planktonic K. pneumoniae, 384-well, […], read-out: AK-based Prestwick Library Screening Results: K. pneumoniae (increase in extracellular AK activity)): 1.2 | fold induction at 50 µM ([4]; planktonic A. baumannii, 384-well, […], read-out: AK-based Prestwick Library Screening Results: A. baumannii (increase in extracellular AK activity)): 1.3 | fold induction at 50 µM ([5]; planktonic P. aeruginosa, 384-well, […], read-out: AK-based Prestwick Library Screening Results: P. aeruginosa (increase in extracellular AK activity)): 1.2 | fold induction at 50 µM ([6]; planktonic E. cloacae, 384-well, […], read-out: AK-based Prestwick Library Screening Results: E. cloacae (increase in extracellular AK activity)): 1.3 | fold induction at 50 µM ([7]; planktonic E. coli, 384-well, […], read-out: AK-based Prestwick Library Screening Results: E. coli (increase in extracellular AK activity)): 1.2

C=CCOC(Cn1ccnc1)c1ccc(Cl)cc1Cl (centres unmarked) [Enilconazole]
fold induction at 50 µM ([1]; cutoff for positive-scoring molecules 3-fold increase, read-out: AK-based Prestwick Library Screening Results, E. faecium (fold increase in extracellular AK activity)): 1.1 | fold induction at 50 µM ([2]; cutoff for positive-scoring molecules 3-fold increase, read-out: AK-based Prestwick Library Screening Results, S. aureus (fold increase in extracellular AK activity)): 0.4 | fold induction at 50 µM ([3]; cutoff for positive-scoring molecules 3-fold increase, read-out: AK-based Prestwick Library Screening Results, K. pneumoniae (fold increase in extracellular AK activity)): 0.5 | fold induction at 50 µM ([4]; cutoff for positive-scoring molecules 3-fold increase, read-out: AK-based Prestwick Library Screening Results, A. baumannii (fold increase in extracellular AK activity)): 0.4 | fold induction at 50 µM ([5]; cutoff for positive-scoring molecules 3-fold increase, read-out: AK-based Prestwick Library Screening Results, P. aeruginosa (fold increase in extracellular AK activity)): 0.4 | fold induction at 50 µM ([6]; cutoff for positive-scoring molecules 3-fold increase, read-out: AK-based Prestwick Library Screening Results, E. cloacae (fold increase in extracellular AK activity)): 0.4 | fold induction at 50 µM ([7]; cutoff for positive-scoring molecules 3-fold increase, read-out: AK-based Prestwick Library Screening Results, E. coli (fold increase in extracellular AK activity)): 0.5
